Literature values as cited in patent publication US20130150551A1, “PROCESSES FOR THE PRODUCTION OF HYDROGENATED PRODUCTS AND DERIVATIVES THEREOF” (BIOAMBER S.A.S., priority 2010, published 2013).

Settings: first acid group

pKa1: 4.43
Structure (SMILES): O=C(O)CCCCC(=O)O [AA, adipic acid]
